Reference: patent US4684742A, “Process for the production of 2-(2-halogenoethylamino)-2-oxo-3-(2-halogenoethyl)-1.3.2.-oxazaphosphori nanes” (Polska Akademia Nauk-Centrum Baden Molekularnych i …, priority 1984, dated 1987)

Legend:
L1210 = assay: Antileukemic activity in L1210 leukemic CD2F1 female mice (increase in life span); type: in vivo; conditions: for ED50: Mus musculus, L1210 leukemic CD2F1 female mice, estimated by regression analysis, read-out: ED50 (dose producing 50% increase in life span of treated mice over control); for advantage over parent ifosfamide: racemic or enantiomeric compounds, versus ifosfamide, conclusion from Table 1
Experimental: (§1) Antileukemic activity against L1210, toxicity and therapeutic
Antileukemic activity was evaluated in L1210 leukemic CD2F1 female
mice ED50 doses producing the 50% increase in life span of treated
mice over control were estimated from experimental data by regression
(§2) anlysis. Toxicity (LD50) were determined in healthy CD2F1 femal

[1] = Toxicity (LD50) in healthy CD2F1 female mice, 14 days observation; conditions: mouse, in vivo; for selectivity ratio: TI from LD50 (healthy CD2F1 mice) and ED50 (L1210 leukemic CD2F1 mice), read-out: Therapeutic index; for LD50 at 336 h: healthy CD2F1 female mice, 14 days observation period
Experimental: as §1, §2
mice during 14 days observation period. TI = LD50

Structure (SMILES)	ED50 (L1210) [mg/kg]	advantage over parent ifosfamide (L1210)	selectivity ratio [1]	LD50 at 336 h [1] [mg/kg]
O=P1(NCCBr)OCCCN1CCBr (centres unmarked) [X=Br, Y=Br, 2-(2-Bromoethylamino)-2-oxo-3-(2-bromoethyl)-1.3.2-oxazaphosphorinane]	43	more advantageous than parent ifosfamide	10.7	459
O=P1(NCCCl)OCCCN1CCBr (centres unmarked) [X=Cl, Y=Br, 2-(2-Chloroethylamino)-2-oxo-3-(2-bromoethyl)-1.3.2-oxazaphosphorinane]	44	more advantageous than parent ifosfamide	11.6	512
O=P1(NCCCl)OCCCN1CCCl (centres unmarked) [X=Cl, Y=Cl, 2-(2-chloroethylamino)-2-oxo-3-(2-chloroethyl)-1.3.2-oxazaphosphorinane, reference compound]	103		6.6	680
